Measured values reported in patent publication US20210308173A1, “PHARMACEUTICAL COMPOSITION COMPRISING CYCLODEXTRIN COMPLEXES OF ANETHOLE TRITHIONE OR DERIVATIVES THEREOF” (priority 2018, published 2021).
Values after ≈ are worked out from the molar mass of the structure shown.

Experiments:
[1] = Stability versus formulation according to Dollo et al.; type: physicochemical; settings: formulation of the invention vs formulation according to Dollo et al.
Description: Consequently, the formulations wherein anethole trithione and derivatives thereof present an improved solubility and stability are still an unmet need.

[2] = Cyclodextrin solubilization screening of AOL; type: physicochemical; settings: water, 25 °C, thermodynamic from solid, read-out: intrinsic solubility in water

## COc1ccc(-c2cc(=S)ss2)cc1 [AOL, 5-(4-methoxyphenyl)-3H-1,2-dithiole-3-thione]
[1]
  stability of the active compound: significantly more stable
[2]
  solubility: ~0.2 µg/mL (≈ 0.832 µM)
